The numbers were not newly measured in patent publication US7405313B2, “Method for the synthesis of basic chromium carboxylates” (The Board of Trustees of the University of Alabama, priority 2006, dated 2008), which cites them from elsewhere.

In one data set the test system is colorectal cancer. The settings on record: rat.
For data set [1] the following is noted: compared to other chromium-containing nutritional supplements.
Data set [2] deals with healthy and model type 2 diabetic rats.
The next data set relates to rats on regular diets. The settings on record: for effect on body mass, percentage lean or fat content, tissue size, or blood variables (fasting glucose, insulin, cholesterol, etc.): rats on regular diets.
[3] abbreviates: healthy and model type 2 diabetic rats.

For `CCC(=O)[O-].CCC(=O)[O-].CCC(=O)[O-].CCC(=O)[O-].CCC(=O)[O-].CCC(=O)[O-].O.O.O.[Cr+3].[Cr+3].[Cr+3].[O-2]` [Complex 1, [Cr3O(O2CCH2CH3)6(H2O)3]^+], the dissolution in water result is given as “dissolves in water very rapidly”. Further, the “onset of colorectal cancer” value in the data set on colorectal cancer is “reduce the onset of colorectal cancer”. Also, in data set [1], the absorption entry was “absorbed very rapidly and very efficiently”. Besides, the glycated hemoglobin result in data set [2] (diabetes models) is reported as “reduce glycated hemoglobin”. Further, in data set [2] (setting [3]), the “blood plasma cholesterol and triglycerides levels” value is “improve blood plasma cholesterol and triglycerides levels”; the insulin sensitivity entry is reported as “increase insulin sensitivity”.

`[Cl][Cr]([Cl])[Cl]` [chromium chloride]: in the data set with rats on regular diets, the “effect on body mass, percentage lean or fat content, tissue size, or blood variables (fasting glucose, insulin, cholesterol, etc.)” value was “no effect”.

“chromium(III) tris(picolinate) [Cr(pic)3]”: the “effect on body mass, percentage lean or fat content, tissue size, or blood variables (fasting glucose, insulin, cholesterol, etc.)” value in the data set on rats on regular diets is on record as “no effect”. For the same molecule, the acute toxic effects result in the data set with rats on regular diets (rats, amounts up to 1500 μg/kg diet for up to 24 weeks) was “no acute toxic effects”.
